# Source: US20190151350A1, “DEPOLYMERIZED HOLOTHURIAN GLYCOSAMINOGLYCAN COMPOSITION AND PREPARATION METHOD AND APPLICATION THEREOF” (Suzhou Yi-hua Biomedical Technology co., Ltd, priority 2017, published 2019)
# System: 4T1 murine mammary carcinoma
# Assay: Orthotopic 4T1 murine mammary carcinoma model, lung metastasis
# Format: in vivo, BALB/C mice
# Description: 4T1 cells are cultured with RPMI-1640 culture solution, wherein the concentration of added fetal calf serum is 10%, a penicillin/streptomycin double-antibody is diluted in the culture solution based on the ratio of 1:100, and the cells are cultured in a thermostatic incubator which contains 5% CO2 and has a saturation temperature of 37° C. The cells are subjected to passage every other 2-3 days based on the ratio of 1:3-1:5. BALB/C mice are randomly divided into 7 groups, and a fourth fat pad of the breast is inoculated with 1×10^5 4 T1 cells. Then 20 mg/kg, 40 mg/kg and 80 mg/kg […] and 4 mg/kg dalteparin are injected to each group respectively. Mice were observed daily. Body weights and tumor volumes were recorded three times per week during the experiment. Breast tumors are removed after continuous administration for 12 days, and then 4 mg/kg cisplatin is […] to each group from the 13th thy, once in every four days. On the 30th day, anesthesia is conducted, the mice are sacrificed, lungs and spleens are taken out, washed and weighted. Photos were taken and lung samples were fixed in 10% neutral for metastatic nodule count and HE staining
# [1] = cisplatin alone or combined with dHG10092, compared with negative control group
structure (smiles),measurement,setting,value
N.N.[Cl][Pt][Cl] [Cisplatin],body weight,"cisplatin 4 mg/kg, alone or in a combination",can cause weight reduction
same,lung weight,[1],much lower
same,spleen weight,[1],much lower
same,lung tumor area range (HE staining),cisplatin independently or with dHG10092,remarkably reduce the lung tumor area range
